Assay results published in US10508120B2, “TYK2 inhibitors and uses thereof” (Nimbus Lakshmi, Inc., priority 2017, dated 2019).

Molecular target: human TYK2 (JH2domain-pseudokinase) (Homo sapiens (Human), UniProt P29597)
Test: TYK2 JH2 Domain Binding Assay (KINOMEscan)
Protocol: Binding constants for compounds of the present invention against the JH2 domain were determined by the following protocol for a KINOMEscan® assay (DiscoveRx). A fusion protein of a partial length construct of human TYK2 (JH2domain-pseudokinase) (amino acids G556 to D888 based on reference sequence NP_003322.3) and the DNA binding domain of NFkB was expressed in transiently transfected HEK293 cells. From these HEK 293 cells, extracts were prepared in M-PER extraction buffer (Pierce) in the presence of Protease Inhibitor Cocktail Complete (Roche) and Phosphatase Inhibitor Cocktail Set II (Merck) per manufacturers' instructions. The TYK2 (JH2domain-pseudokinase) fusion protein was labeled with a chimeric double-stranded DNA tag containing the NFkB binding site (5′-[…]-3′) fused to an amplicon for qPCR readout, which was added directly to the expression extract (the final concentration of DNA-tag in the binding reaction is 0.1 nM).
The liganded beads were blocked with excess biotin and washed with blocking buffer (SeaBlock (Pierce), 1% BSA, 0.05% Tween 20, 1 mM DTT) to remove unbound ligand and to reduce nonspecific binding.
Extracts were used directly in binding assays without any enzyme purification steps at a ≥10,000-fold overall stock dilution (final DNA-tagged enzyme concentration <0.1 nM). Extracts were loaded with DNA-tag and diluted into the binding reaction in a two step process. First extracts were diluted 1:100 in 1× binding buffer (PBS/0.05% Tween 20/10 mM DTT/0.1% BSA/2 μg/ml sonicated salmon sperm DNA) containing 10 nM DNA-tag. This dilution was allowed to equilibrate at room temperature for 15 minutes and then subsequently diluted 1:100 in 1× binding buffer. […] Kds were determined using an 11-point 3-fold compound dilution series with three DMSO control points. […] The compounds were then diluted directly into the assays such that the final concentration of DMSO was 0.9%. All reactions performed in polypropylene 384-well plates. Each was a final volume of 0.02 mL. Assays were incubated with shaking for 1 hour at room temperature. Then the beads were pelleted and washed with wash buffer (1×PBS, 0.05% Tween 20) to remove displaced kinase and test compound. […] The qPCR protocol consisted of a 10 minute hot start at 95° C., followed by 35 cycles of 95° C. for 15 seconds, 60° C. for 1 minute.
Kds were determined using an 11-point 3-fold compound dilution series with three DMSO control points. […] The compounds were then diluted directly into the assays such that the final concentration of DMSO was 0.9%. The Kds were determined using a compound top concentration of 30,000 nM. Kd measurements were performed in duplicate.
Binding constants (Kds) were calculated with a standard dose-response curve using the Hill equation: […]
The Hill Slope was set to −1.

Chain of human TYK2 (JH2domain-pseudokinase) (P29597 556-888): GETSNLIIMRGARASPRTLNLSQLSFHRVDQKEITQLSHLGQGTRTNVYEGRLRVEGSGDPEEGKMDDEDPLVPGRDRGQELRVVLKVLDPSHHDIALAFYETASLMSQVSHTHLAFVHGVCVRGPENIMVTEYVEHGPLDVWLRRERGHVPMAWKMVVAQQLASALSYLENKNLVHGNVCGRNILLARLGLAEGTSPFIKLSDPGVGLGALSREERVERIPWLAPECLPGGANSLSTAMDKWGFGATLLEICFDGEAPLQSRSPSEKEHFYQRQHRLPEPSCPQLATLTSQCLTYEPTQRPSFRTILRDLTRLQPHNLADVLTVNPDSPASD

Row | SMILES | Kd [nM]
1 | CNc1cc(-c2cn([C@H]3CCN(CCF)C3)c3ncccc23)nc2c(C(=O)NC3CC3)cnn12 [I-1363] | 0.2 to 1
2 | CNc1cc(Nc2cccn(-c3ccc(C)nc3)c2=O)nc2c(C(=O)N[C@H]3CCC[C@H](OC)C3)cnn12 [I-1188] | 1 to 10
3 | CNc1cc(Nc2cccn(C(C)C)c2=O)nc2c(C(=O)N[C@@H]3CC[C@]3(C)O)cnn12 [I-1370] | 1 to 10
4 | CNc1cc(Nc2cccn(-c3ocnc3C)c2=O)nc2c(C(=O)N[C@H]3CC[C@H]3O)cnn12 [I-1259] | > 10
5 | CNc1cc(Nc2cccn([C@H]3CCCOC3)c2=O)nc2c(C(=O)N[C@@H]3CCC[C@@](C)(OC)C3)cnn12 [I-1237] | > 10
6 | CNc1cc(Nc2cccn(C(C)C)c2=O)nc2c(C(=O)N[C@H]3COC[C@H]3O)cnn12 [I-1406] | > 10
7 | CNc1cc(Nc2cccn(C3CCOCC3)c2=O)nc2c(C(=O)N[C@@H]3CCC[C@@H](O)C3)cnn12 [I-1226] | 1 to 10
8 | CNc1cc(Nc2cccn3ccnc23)nc2c(C(=O)N[C@H]3CCC[C@]3(C)O)cnn12 [I-1316] | 1 to 10
9 | CNc1cc(Nc2cccn(-c3cccnc3)c2=O)nc2c(C(=O)N[C@@H]3CCC[C@@H](OC)C3)cnn12 [I-1218] | 1 to 10
10 | CNc1cc(Nc2cccn([C@H]3CC[C@@H](OC)CC3)c2=O)nc2c(C(=O)N[C@H]3CC[C@@H]3O)cnn12 [I-1291] | 1 to 10
11 | CNc1cc(-c2cn(C3CCOCC3)c3ncccc23)nc2c(C(=O)N[C@H]3CCCC[C@]3(C)O)cnn12 [I-1273] | > 10
12 | CNc1cc(-c2cn([C@H]3CCCOC3)c3ncccc23)nc2c(C(=O)N[C@H]3COC[C@H]3O)cnn12 (mixture of isomers) [I-1251, N-(4-hydroxytetrahydrofuran-3-yl)-7-(methylamino)-5-(1-((S)-tetrahydro-2H-pyran-3-yl)-1H-pyrrolo[2,3-b]pyridin-3-yl)pyrazolo[1,5-a]pyrimidine-3-carboxamide] | 1 to 10
13 | CNc1cc(Nc2cccn([C@H]3CCC[C@H]3O)c2=O)nc2c(C(=O)N[C@@H]3CC[C@H]3OC)cnn12 [I-1372] | 0.2 to 1
14 | CNc1cc(Nc2cccn(C(C)C)c2=O)nc2c(C(=O)N[C@@H]3CCC[C@@](C)(O)C3)cnn12 [I-1243] | 1 to 10
15 | CNc1cc(-c2cn([C@H]3CCC[C@@H]3OC)c3ncccc23)nc2c(C(=O)N[C@@H]3CC[C@@H]3O)cnn12 [I-1224, N-((1R,2S)-2-hydroxycyclobutyl)-5-(1-((1S,2S)-2-methoxycyclopentyl)-1H-pyrrolo[2,3-b]pyridin-3-yl)-7-(methylamino)pyrazolo[1,5-a]pyrimidine-3-carboxamide] | 1 to 10
16 | CNc1cc(Nc2cccn([C@H]3C[C@@H]3F)c2=O)nc2c(C(=O)N[C@@H]3CC[C@H](O)C3)cnn12 [I-1202] | 1 to 10
17 | CNc1cc(Nc2cccn([C@H]3CCCN(CCC#N)C3)c2=O)nc2c(C(=O)NC3CC3)cnn12 [I-1347, (S)-5-((1-(1-(2-cyanoethyl)piperidin-3-yl)-2-oxo-1,2-dihydropyridin-3-yl)amino)-N-cyclopropyl-7-(methylamino)pyrazolo[1,5-a]pyrimidine-3-carboxamide] | 1 to 10
18 | CNc1cc(-c2cn(CCCO)c3ncccc23)nc2c(C(=O)N[C@H]3CC[C@@H]3OC)cnn12 [I-1300] | 1 to 10
19 | CNc1cc(-c2cn(C3CCOCC3)c3ncccc23)nc2c(C(=O)N[C@H]3COC[C@H]3O)cnn12 [I-1308] | > 10
20 | CNc1cc(-c2cn([C@H]3CCC[C@@H]3OC)c3ncccc23)nc2c(C(=O)N[C@H]3CC[C@H]3O)cnn12 [I-1223, N-((1S,2R)-2-hydroxycyclobutyl)-5-(1-((1S,2S)-2-methoxycyclopentyl)-1H-pyrrolo[2,3-b]pyridin-3-yl)-7-(methylamino)pyrazolo[1,5-a]pyrimidine-3-carboxamide] | 0.2 to 1
21 | CNc1cc(Nc2cc(Cl)cnc2O[C@@H]2CCOC2)nc2c(C(N)=O)cnn12 [I-84] | 0.2 to 1
22 | CNc1cc(-c2cn(C3CCOCC3)c3ncccc23)nc2c(C(=O)N[C@H]3COC[C@H]3O)cnn12 [I-1408] | 0.2 to 1
23 | CNc1cc(-c2cn([C@H]3CCCOC3)c3ncccc23)nc2c(C(=O)N[C@H]3CC[C@H]3O)cnn12 [I-1258] | > 10
24 | CNc1cc(Nc2cccn(C3CC(F)(F)C3)c2=O)nc2c(C(=O)N[C@@H]3CC[C@@H](OC)C3)cnn12 [I-1210] | 0.2 to 1

Other lines, results leading:

Row | Kd [nM] | SMILES
25 | < 0.2 | CNc1cc(Nc2cccn([C@@H]3C[C@H]3OC)c2=O)nc2c(C(=O)NC3CC3)cnn12 [I-1227]
26 | < 0.2 | CNc1cc(-c2cn([C@H]3CCCOC3)c3ncccc23)nc2c(C(N)=O)cnn12 [I-1256]
27 | < 0.2 | CNc1cc(-c2cn([C@@H]3CCN(CCF)C3)c3ncccc23)nc2c(C(=O)NC3CC3)cnn12 [I-1367, (R)—N-cyclopropyl-5-(1-(1-(2-fluoroethyl)pyrrolidin-3-yl)-1H-pyrrolo[2,3-b]pyridin-3-yl)-7-(methylamino)pyrazolo[1,5-a]pyrimidine-3-carboxamide]
28 | < 0.2 | CNc1cc(-c2cn(C(C)C)c3ncccc23)nc2c(C(=O)N[C@@H]3CC[C@]3(C)O)cnn12 [I-1326]
29 | < 0.2 | CNc1cc(-c2cn(C3CC3)c3ncccc23)nc2c(C(=O)N[C@H]3COC[C@H]3O)cnn12 [I-1356]
30 | < 0.2 | CNc1cc(Nc2cccn(C3CCOCC3)c2=O)nc2c(C(=O)N[C@H]3CCC[C@H](O)C3)cnn12 [I-1225]
31 | < 0.2 | CNc1cc(Nc2cccn([C@@H]3CCC[C@H](C#N)C3)c2=O)nc2c(C(=O)NC3CC3)cnn12 [I-1244]
32 | < 0.2 | CNc1cc(Nc2cccn(-c3cnn(C)c3F)c2=O)nc2c(C(=O)N[C@@H]3CC[C@H]3OC)cnn12 [I-1368]
33 | < 0.2 | CNc1cc(Nc2cccn([C@H]3CCN(CCF)C3)c2=O)nc2c(C(=O)N[C@@H]3CC[C@H]3OC)cnn12 [I-1380]
34 | < 0.2 | CNc1cc(Nc2cccn([C@H]3CCCOC3)c2=O)nc2c(C(=O)N[C@@H]3C[C@H]3OC)cnn12 [I-1248]
35 | < 0.2 | CNc1cc(Nc2cccn(C(C)C)c2=O)nc2c(C(=O)N[C@H]3CC[C@@]3(C)O)cnn12 [I-1371]
36 | < 0.2 | CNc1cc(Nc2cccn([C@@H]3C[C@H]3F)c2=O)nc2c(C(=O)N[C@H]3CC[C@@H]3O)cnn12 [I-1401]
37 | 0.2 to 1 | CNc1cc(Nc2cccn(C3CCOCC3)c2=O)nc2c(C(=O)N[C@@H]3CCC[C@@H](OC)C3)cnn12 [I-1297]
38 | < 0.2 | CNc1cc(Nc2cccn(-c3ccccn3)c2=O)nc2c(C(=O)N[C@H]3C[C@@H]3OC)cnn12 [I-1287]
39 | < 0.2 | CNc1cc(Nc2cccn([C@H]3CC[C@@H](OC)CC3)c2=O)nc2c(C(=O)N[C@H]3CC[C@H]3O)cnn12 [I-1292]
40 | < 0.2 | CNc1cc(Nc2cccn([C@H]3C[C@@H]3OC)c2=O)nc2c(C(=O)N[C@@H]3CC[C@H]3OC)cnn12 [I-1186]
41 | < 0.2 | CNc1cc(Nc2cccn(C3CCOCC3)c2=O)nc2c(C(=O)N[C@H]3CC[C@@H](O)C3)cnn12 [I-1263]
42 | < 0.2 | CCO[C@H]1CC[C@@H]1NC(=O)c1cnn2c(NC)cc(Nc3cccn(-c4ccccn4)c3=O)nc12 [I-1231]
43 | 0.2 to 1 | CNc1cc(-c2cn([C@@H]3CCC[C@H]3OC)c3ncccc23)nc2c(C(=O)N[C@H]3CC[C@H]3O)cnn12 [I-1246, N-((1S,2R)-2-hydroxycyclobutyl)-5-(1-((1R,2R)-2-methoxycyclopentyl)-1H-pyrrolo[2,3-b]pyridin-3-yl)-7-(methylamino)pyrazolo[1,5-a]pyrimidine-3-carboxamide]
44 | < 0.2 | CNc1cc(-c2cn(C3CCOCC3)c3ncccc23)nc2c(C(=O)N[C@@H]3CCC[C@@H](O)C3)cnn12 (stereo in doubt) [I-1359, N-(3-hydroxycyclohexyl)-7-(methylamino)-5-(1-(tetrahydro-2H-pyran-4-yl)-1H-pyrrolo[2,3-b]pyridin-3-yl)pyrazolo[1,5-a]pyrimidine-3-carboxamide]
45 | 0.2 to 1 | CNc1cc(-c2cn(CCCO)c3ncc(F)cc23)nc2c(C(=O)N[C@H]3CC[C@@H]3OC)cnn12 [I-1230]
46 | 0.2 to 1 | CCO[C@@H]1CC[C@H]1NC(=O)c1cnn2c(NC)cc(Nc3cccn(-c4ccccn4)c3=O)nc12 [I-1232]
47 | < 0.2 | CNc1cc(Nc2cccn([C@H]3CCC[C@@H](C#N)C3)c2=O)nc2c(C(=O)N[C@@H]3C[C@@H]3F)cnn12 [I-1360]
48 | < 0.2 | CNc1cc(Nc2cccn(-c3cccc(F)c3)c2=O)nc2c(C(=O)N[C@H]3COC[C@H]3O)cnn12 [I-1407]
49 | < 0.2 | CNc1cc(-c2cn(C(C)C)c3ncccc23)nc2c(C(=O)N[C@H]3CC[C@@]3(C)O)cnn12 [I-1327]
50 | < 0.2 | CNc1cc(-c2cn(C3CC3)c3ncccc23)nc2c(C(=O)N[C@@H]3CCC[C@@]3(C)O)cnn12 [I-1280]
